Where a SMILES comes first, the peptide text is derived from it. The star is where a group is joined. Cbz = O=C(OCc1ccccc1)*; CH2F = FC*

In series [1] the test system is hair cells of organ of Corti. The series is described as follows: Mitochondrial function and hair cell survival in organ of Corti treated with cisplatin. The class given is cell-based. The settings on record: cisplatin treatment alone (FIGS. 3B, 3E). The source says:
FIGS. 3A-3F are fluorescent micrographs showing mitochondrial function in hair cells. Cells with healthy and functioning mitochondria stain red and are depicted in 3D, 3E and 3F. The presence of hair cells are shown in green and depicted in 3A, 3B and 3C. FIGS. 3A and 3D represent untreated controls. FIGS. 3B and 3E show an organ of Corti treated with the chemotherapeutic agent cisplatin. […] FIGS. 3C and 3F show an organ of Corti pretreated with an adenovector with bcl2 expression followed by cisplatin treatment.

The target in another series is cathepsin B (Homo sapiens, UniProt P07858). The following applies: in vitro and in tissue culture cells at concentrations used to demonstrate the involvement of caspases; cited from earlier work.
Another series relates to inner ear. The series is described as follows: Hearing by auditory brainstem response after round window injection of vector. The format is in vivo, mouse. The following applies: for protection of hearing / prevention of inner ear trauma by caspase inhibitor: larger volumes of fluid (greater than about 10% of total inner ear volume), hydraulic/mechanical injury.

For the compound `N.N.[Cl][Pt][Cl]` [cisplatin], in series [1], the “hair cells and mitochondrial function in organ of Corti” value is “loss of cells and loss of mitochondrial function”.
Consider `CC(C)[C@H](NC(=O)OCc1ccccc1)C(=O)N[C@@H](C)C(=O)N[C@@H](CC(=O)O)C(=O)CF` [zVAD-FMK, N-benzyloxycarbonyl-Val-Ala-Asp-fluoromethylketone] (Cbz-Val-Ala-Asp-CH2F), for which the “cathepsin B activity inhibition” value on cathepsin B is “inhibit efficiently cathepsin B activity”. The “protection of hearing / prevention of inner ear trauma by caspase inhibitor” value is “can prevent inner ear trauma” in the series on inner ear and “protected hearing” in the series with inner ear (listed as pancaspase inhibitor). Besides, in the series with inner ear (round window, injection volumes up to 3 μL, zVAD-FMK 1 mM, 2 μL with 1 μL vector), the “hearing loss with pancaspase inhibitor added to the vector composition” value is “only minimal loss of hearing”.
